What was measured:
Experiment in all cases: Herbicidal effect test by soil treatment
Type in all cases: in vivo
[1] = system: black nightshade (Solanum nigrum L.); conditions: three weeks after spraying
Excerpt: (§1) In a plastic box of 15 cm length, 22 cm width and 6 cm depth, there was placed a sterilized dilvial soil, and seeds of barnyardgrass (Echinochloa crusgalli), large crabgrass (Digitaria adscendens), annual sedge (Cyperus microiria), black nightshade (Solanum nigrum L.), hairly galinosoga (Galinsoga ciliat), rorippa ssp. (Rorippa atrovirens), rice (Oryza sativa), corn (Zea mays), wheat (Triticum aestivum), soybean (Glysine max) and cotton (Gossypium herbaceum) were sown mixedly. After covering soil to about 1 cm over the seeds, herbicides were sprayed evenly on the soil surface to predetermined proportions of the active ingredient In spraying, the wettable powder, emulsifiable concentrate, dry flowable or flowable in the above formulation examples were diluted with water and sprayed over the entire surface by means of a small sprayer. Three weeks after spraying, the herbicidal effect on crop plants including rice, corn, wheat, soybean, cotton and various kinds of weeds were examined according to the judgement criteria shown below. Judgement criteria
(§2) The above growth control rates are determined by measuring the top fresh weights of the treated plants and those of the non-treated plants, and culculated from the following formula: [formula]

[2] = system: cotton (Gossypium herbaceum); conditions: crop plant, three weeks after spraying
Excerpt: as §1, §2

[3] = system: rice (Oryza sativa); conditions: crop plant, three weeks after spraying
Excerpt: as §1, §2

[4] = system: rorippa ssp. (Rorippa atrovirens); conditions: three weeks after spraying
Excerpt: as §1, §2

[5] = system: corn (Zea mays); conditions: crop plant, three weeks after spraying
Excerpt: as §1, §2

[6] = system: barnyardgrass (Echinochloa crusgalli); conditions: three weeks after spraying
Excerpt: as §1, §2

[7] = system: large crabgrass (Digitaria adscendens); conditions: three weeks after spraying
Excerpt: as §1, §2

[8] = system: soybean (Glysine max); conditions: crop plant, three weeks after spraying
Excerpt: as §1, §2

[9] = system: hairly galinosoga (Galinsoga ciliat); conditions: three weeks after spraying
Excerpt: as §1, §2

[10] = system: annual sedge (Cyperus microiria); conditions: three weeks after spraying
Excerpt: as §1, §2

[11] = system: wheat (Triticum aestivum); conditions: crop plant, three weeks after spraying
Excerpt: as §1, §2

SMILES | herbicidal effect, H (Solanum nigrum L.) ([1]; application amount 0.4 g/a) | herbicidal effect, H (Solanum nigrum L.) ([1]; application amount 0.8 g/a) | herbicidal effect, H (Solanum nigrum L.) ([1]; application amount 1.6 g/a) | herbicidal effect, C (Gossypium herbaceum) ([2]; application amount 0.4 g/a) | herbicidal effect, C (Gossypium herbaceum) ([2]; application amount 0.8 g/a) | herbicidal effect, C (Gossypium herbaceum) ([2]; application amount 1.6 g/a) | herbicidal effect, R (Oryza sativa) ([3]; application amount 0.4 g/a) | herbicidal effect, R (Oryza sativa) ([3]; application amount 0.8 g/a) | herbicidal effect, R (Oryza sativa) ([3]; application amount 1.6 g/a) | herbicidal effect, I (Rorippa indica) ([4]; application amount 0.4 g/a) | herbicidal effect, I (Rorippa indica) ([4]; application amount 0.8 g/a) | herbicidal effect, I (Rorippa indica) ([4]; application amount 1.6 g/a) | herbicidal effect, T (Zea mays) ([5]; application amount 0.4 g/a) | herbicidal effect, T (Zea mays) ([5]; application amount 1.6 g/a) | herbicidal effect, N (Echinochloa crusgalli) ([6]; application amount 1.6 g/a) | herbicidal effect, M (Digitaria adscendens) ([7]; application amount 1.6 g/a) | herbicidal effect, S (Glysine max) ([8]; application amount 1.6 g/a) | herbicidal effect, D (Galinsoga ciliat) ([9]; application amount 1.6 g/a) | herbicidal effect, K (Cyperus microiria) ([10]; application amount 1.6 g/a) | herbicidal effect, W (Triticum vulgare) ([11]; application amount 1.6 g/a) | further results
C#CCN1C(=O)COc2cc(F)c(N3C(=O)CC(C)CC3=O)cc21 [1-23] | 5 (Growth control,rates of more than 90% (almost completely withered)) | 5 (Growth control,rates of more than 90% (almost completely withered)) | 5 (Growth control,rates of more than 90% (almost completely withered)) | 2 (Growth control rates of 20 to 40%) | 3 (Growth control rates of 40 to 70%) | 4 (Growth control rates of 70 to 90%) | 2 (Growth control rates of 20 to 40%) | 3 (Growth control rates of 40 to 70%) | 5 (Growth control,rates of more than 90% (almost completely withered)) | 5 (Growth control,rates of more than 90% (almost completely withered)) | 5 (Growth control,rates of more than 90% (almost completely withered)) | 5 (Growth control,rates of more than 90% (almost completely withered)) | 4 (Growth control rates of 70 to 90%) | 5 (Growth control,rates of more than 90% (almost completely withered)) | 5 (Growth control,rates of more than 90% (almost completely withered)) | 5 (Growth control,rates of more than 90% (almost completely withered)) | 2 (Growth control rates of 20 to 40%) | 5 (Growth control,rates of more than 90% (almost completely withered)) | 5 (Growth control,rates of more than 90% (almost completely withered)) | 5 (Growth control,rates of more than 90% (almost completely withered)) | herbicidal effect, T (Zea mays) ([5]; application amount 0.8 g/a): 5 (Growth control,rates of more than 90% (almost completely withered)); herbicidal effect, N (Echinochloa crusgalli) ([6]; application amount 0.4 g/a): 5 (Growth control,rates of more than 90% (almost completely withered)); herbicidal effect, N (Echinochloa crusgalli) ([6]; application amount 0.8 g/a): 5 (Growth control,rates of more than 90% (almost completely withered)); herbicidal effect, M (Digitaria adscendens) ([7]; application amount 0.4 g/a): 5 (Growth control,rates of more than 90% (almost completely withered)); herbicidal effect, M (Digitaria adscendens) ([7]; application amount 0.8 g/a): 5 (Growth control,rates of more than 90% (almost completely withered)); herbicidal effect, S (Glysine max) ([8]; application amount 0.4 g/a): 0 (Growth control rates of less than 5% (substantially no effect)); herbicidal effect, S (Glysine max) ([8]; application amount 0.8 g/a): 1 (Growth control rates of 5 to 20%); herbicidal effect, D (Galinsoga ciliat) ([9]; application amount 0.4 g/a): 5 (Growth control,rates of more than 90% (almost completely withered)); herbicidal effect, D (Galinsoga ciliat) ([9]; application amount 0.8 g/a): 5 (Growth control,rates of more than 90% (almost completely withered)); herbicidal effect, K (Cyperus microiria) ([10]; application amount 0.4 g/a): 5 (Growth control,rates of more than 90% (almost completely withered)); herbicidal effect, K (Cyperus microiria) ([10]; application amount 0.8 g/a): 5 (Growth control,rates of more than 90% (almost completely withered)); herbicidal effect, W (Triticum vulgare) ([11]; application amount 0.4 g/a): 4 (Growth control rates of 70 to 90%); herbicidal effect, W (Triticum vulgare) ([11]; application amount 0.8 g/a): 5 (Growth control,rates of more than 90% (almost completely withered))
O=C1COc2cc(F)c(N3C(=O)CC(C(F)(F)F)CC3=O)cc2N1 [1-25] | – | – | 5 (Growth control,rates of more than 90% (almost completely withered)) | – | – | 1 (Growth control rates of 5 to 20%) | – | – | 1 (Growth control rates of 5 to 20%) | – | – | 5 (Growth control,rates of more than 90% (almost completely withered)) | – | 0 (Growth control rates of less than 5% (substantially no effect)) | 5 (Growth control,rates of more than 90% (almost completely withered)) | 5 (Growth control,rates of more than 90% (almost completely withered)) | 0 (Growth control rates of less than 5% (substantially no effect)) | 5 (Growth control,rates of more than 90% (almost completely withered)) | 5 (Growth control,rates of more than 90% (almost completely withered)) | 0 (Growth control rates of less than 5% (substantially no effect)) | –
C#CCN1C(=O)COc2cc(F)c(N3C(=O)CC(C(F)(F)F)CC3=O)cc21 [1-26] | 5 (Growth control,rates of more than 90% (almost completely withered)) | 5 (Growth control,rates of more than 90% (almost completely withered)) | 5 (Growth control,rates of more than 90% (almost completely withered)) | 5 (Growth control,rates of more than 90% (almost completely withered)) | 5 (Growth control,rates of more than 90% (almost completely withered)) | 5 (Growth control,rates of more than 90% (almost completely withered)) | 5 (Growth control,rates of more than 90% (almost completely withered)) | 5 (Growth control,rates of more than 90% (almost completely withered)) | 5 (Growth control,rates of more than 90% (almost completely withered)) | 5 (Growth control,rates of more than 90% (almost completely withered)) | 5 (Growth control,rates of more than 90% (almost completely withered)) | 5 (Growth control,rates of more than 90% (almost completely withered)) | 4 (Growth control rates of 70 to 90%) | 5 (Growth control,rates of more than 90% (almost completely withered)) | 5 (Growth control,rates of more than 90% (almost completely withered)) | 5 (Growth control,rates of more than 90% (almost completely withered)) | 4 (Growth control rates of 70 to 90%) | 5 (Growth control,rates of more than 90% (almost completely withered)) | 5 (Growth control,rates of more than 90% (almost completely withered)) | 5 (Growth control,rates of more than 90% (almost completely withered)) | herbicidal effect, T (Zea mays) ([5]; application amount 0.8 g/a): 5 (Growth control,rates of more than 90% (almost completely withered)); herbicidal effect, N (Echinochloa crusgalli) ([6]; application amount 0.4 g/a): 5 (Growth control,rates of more than 90% (almost completely withered)); herbicidal effect, N (Echinochloa crusgalli) ([6]; application amount 0.8 g/a): 5 (Growth control,rates of more than 90% (almost completely withered)); herbicidal effect, M (Digitaria adscendens) ([7]; application amount 0.4 g/a): 5 (Growth control,rates of more than 90% (almost completely withered)); herbicidal effect, M (Digitaria adscendens) ([7]; application amount 0.8 g/a): 5 (Growth control,rates of more than 90% (almost completely withered)); herbicidal effect, S (Glysine max) ([8]; application amount 0.4 g/a): 0 (Growth control rates of less than 5% (substantially no effect)); herbicidal effect, S (Glysine max) ([8]; application amount 0.8 g/a): 2 (Growth control rates of 20 to 40%); herbicidal effect, D (Galinsoga ciliat) ([9]; application amount 0.4 g/a): 5 (Growth control,rates of more than 90% (almost completely withered)); herbicidal effect, D (Galinsoga ciliat) ([9]; application amount 0.8 g/a): 5 (Growth control,rates of more than 90% (almost completely withered)); herbicidal effect, K (Cyperus microiria) ([10]; application amount 0.4 g/a): 5 (Growth control,rates of more than 90% (almost completely withered)); herbicidal effect, K (Cyperus microiria) ([10]; application amount 0.8 g/a): 5 (Growth control,rates of more than 90% (almost completely withered)); herbicidal effect, W (Triticum vulgare) ([11]; application amount 0.4 g/a): 4 (Growth control rates of 70 to 90%); herbicidal effect, W (Triticum vulgare) ([11]; application amount 0.8 g/a): 5 (Growth control,rates of more than 90% (almost completely withered))

From EP0454444A1, “Glutarimide derivatives and herbicides” (NISSAN CHEMICAL INDUSTRIES LTD., priority 1990, dated 1991)
